{
  "source": "patent US7582652B2",
  "about": "“Kinase inhibitors” (Eli Lilly and Company, priority 2004, dated 2009)",
  "key": {"[1]": {"test_system": "TNF-α production in mouse peritoneal macrophages", "experiment": "Inhibition of TNF-α in vitro (mouse peritoneal macrophages, LPS/interferon-γ, Luminex)", "format": "cell-based", "conditions": "suppression of TNF-α; macrophages treated with 50 ng/mL LPS and 10 U/mL interferon-γ for 18 h", "protocol": "Mouse Peritoneal Macrophages\n1 mL thioglycolate broth (5.0 g yeast extract, 15.0 g casitone or trypticase, 5.0 g dextrose, 2.5 g sodium chloride, 0.75 g L-cystine, 0.5 g sodium thioglycolate, 1.0 mg resazurin, and 0.75 g agar in 1.0 L distilled water) is injected into the peritoneal cavity of Balb/C female mice. At day 4 or 5 post-injection the mice are sacrificed and then injected i.p. with 4 mL RPMI-1640 medium (BioWhittaker) and the peritoneal macrophages are withdrawn by syringe.\nMouse peritoneal microphages are counted with a hemocytometer and adjusted to 5×10^5 cells/well in 96-well plates in RPMI-1640 medium with 10% fetal bovine serum. 200 μL/well is plated in 96-well plates and the cells allowed to settle and adhere to the bottom of the well for at least 3 h. The test compound or standard p38 kinase inhibitor is pre-treated using a series of 8 concentrations for 1 h at 37° C. (20 μL/well). The cells are treated with a mixture of 50 ng/mL lipopolysaccharide (LPS) and 10 U/mL interferon-γ for 18 h at 37° C. (20 μL/well). The conditioned media is harvested and assayed for TNF-α production using the Luminex procedure.\nTNF-α/Luminex Detection Assay (Bio-Rad Bio-Plex Kit—Catalog #171-G12221)\nThe lyophilized premixed TNF-α standard (1 standard tube/two 96-well plates) is reconstituted with 50 μL sterile water (500,000 pg/mL). The samples are vortexed for 5 seconds, incubated on ice for 30 min, and vortexed for 5 seconds before use. A set of twelve 1.5 mL tubes are labeled with #1-thru #12 and then the amounts of cell media shown below added to the appropriate tubes (standard concentrations are as follows: 50,000; 25,000; 12,500; 6,250; 3,125; 1,562.5; 781.3; 390.6; 195.3; 97.7; 48.8; and 24.4 pg/mL). The premixed anti-cytokine conjugated beads are vortexed (25×) vigorously for 30 seconds. The anti-cytokine conjugated beads are diluted to a 1× concentration using 1× Bio-Plex Assay Buffer. For every plate, 240 μL of the pre-mixed beads is added to 5760 μL of Bio-Plex Assay Buffer. A Millipore 96-well filter plate is blocked with 100 μL/well of blocking buffer. The blocking buffer is filtered through using a Millipore filtration system and then toweled dry. 2 washes are performed on the filter plate with 100 μL/well of Bio-Plex Assay Buffer and toweled dry. The 1× anti-cytokine conjugated beads are vortexed for 15 seconds and added 50 μL to each well. This is filtered through and toweled dry. 2 washes are performed on plates with 100 μl/well of Bio-Plex Wash Buffer. Again, it is filtered through and toweled dry. 50 μL of sample or standard is added to each sample well. This is incubated for 60 seconds at RT on a shaker protected from light at setting 6 and then for 30 min at setting 3 and then placed in the refrigerator overnight. 3 washes are performed with Bio-Plex Wash Buffer. Filter through and toweled dry. The cytokine detection antibody is prepared (˜10 min prior to use) for every plate and 60 μL of the premixed cytokine detection antibody stock is added to 5940 μL of Bio-Plex Detection Antibody Diluent. 50 μL of cytokine detection antibody is added and incubated for 60 seconds at RT on a shaker protected from light at setting 6 and then for 30 min at setting 3.3 washes are performed with the Bio-Plex Wash Buffer. This is filtered through and toweled dry. Strept-PE (˜10 minutes prior to use) is prepared for every plate and 60 μL to 5940 μL of Bio-Plex Assay Buffer added. 50 μL of Streptavidin-PE is added to each well and incubated for 60 seconds at RT on a shaker protected from light at setting 6 and then for 10 min at setting 3. 3 washes are performed with Bio-Plex Wash-Buffer. This is filtered through. The beads are re-suspended in 100 μL/well of Bio-Plex Assay Buffer. Standards and samples are read on a Luminex machine. […]"}, "[2]": {"test_system": "TNF-α synthesis in synovial lavage fluid", "experiment": "Effect on intra-articular LPS induced TNF-α", "format": "in vivo, female Lewis rats", "protocol": "Effect on Intra-articular LPS Induced TNF-α\nIntra-articular injection of LPS into rat ankles induces the synthesis of TNF-α, which can be measured in synovial lavage fluid. High levels of TNF-α are detectable within 2 hours. Since the joint is the site where arthritis develops, this model can rapidly determine whether an orally administered compound has an effect on an inflammatory response in the synovium.\nSix female Lewis rats (150-200 g) are place in each treatment group. The animals are given vehicle (1% NaCarboxymethylcellulose-0.25% Tween 80) or test compound (1 mg/kg, 3 mg/kg, 10 mg/kg, and 30 mg/kg) orally. One hour later, 10 μl LPS (10 μg) is administered intra-articularly into the right ankle of each rat, while the left ankle receives 10 μL of saline. After two hours, each ankle is lavaged with 100 μL of saline. The lavage is collected and stored at −80° C. • Group#1: Vehicle (1% NaCMC-0.25% Tween 80, 1 mL, PO) • Group#2: Test compound (1 mg/kg, 1 mL, PO) • Group#3: Test compound (3 mg/kg, 1 mL, PO) • Group#4: Test compound (10 mg/kg, 1 mL, PO) • Group#5: Test compound (30 mg/kg, 1 mL, PO)\nTNF-α is measured with a commercially available ELISA kit (R&D, RTA00)."}, "[3]": {"test_system": "collagen induced arthritis (ankle diameter)", "experiment": "Rat collagen induced arthritis efficacy model", "format": "in vivo, female Lewis rats", "conditions": "PO bid x 14 days, AUC of composite inflammation scores", "protocol": "Rat Collagen Induced Arthritis Efficacy Model\nFemale Lewis rats (≅190 g, Charles River Labs) are immunized with Bovine type II collagen (2 mg/mL) emulsified with an equal volume of adjuvant (aluminum hydroxide). […]. The rats are immunized with approximately […] of the emulsion intradermally on the back near the base of the tail. All animals are re-immunized 7 days later according to the same protocol. The rats begin to develop arthritis (characterized by swelling and redness of one or both ankles) from 12 to 14 days after the first immunization. The rats are equally distributed into five treatment groups at the first signs of arthritis and treatment is initiated with each rat dosed bid for 14 days.\nAnkle diameter is measured with calipers 5 days a week and recorded. Data is expressed as the area under the curve (AUC) generated from the composite inflammation scores and statistical analysis performed."}},
  "data": [
    {"smiles": "CC(C)(C)Cn1c(N)nc2ccc(-c3nc(C(C)(C)C)[nH]c3-c3ccc(F)cc3)nc21.CS(=O)(=O)O.CS(=O)(=O)O", "note": "[EXAMPLE 104, Crystalline 5-[2-tert-Butyl-5-(4-fluoro-phenyl)-1H-imidazol-4-yl]-3-(2,2-dimethyl-propyl)-3H-imidazo[4,5-b]pyridin-2-ylamine dimethanesulfonate]", "values": [
      {"measurement": "IC50", "setting": "[1]", "value": 6.3, "unit": "nM"},
      {"measurement": "inhibition of TNF-α synthesis (in words)", "setting": "[2]; oral 1, 3, 10, 30 mg/kg", "value": "dose-dependent inhibition"},
      {"measurement": "TMED50 (inhibition of TNF-α synthesis)", "setting": "[2]; oral, LPS intra-articular 1 h later, ankle lavage after 2 h", "value": 0.54, "unit": "mg/kg"},
      {"measurement": "TMED50", "setting": "[3]", "value": "1.5 mg/kg (b.i.d.)"}
    ]}
  ]
}
